Test results: patent US20220323406A1, “METHODS AND COMPOSITIONS FOR DIFFERENTIATING STEM CELLS” (Massachusetts Institute of Technology, priority 2019, published 2022)

Key:
[1] = test system: ENR+CD organoids (ISC to Paneth cell differentiation); assay: Primary screen: basal (non-stimulated) lysozyme secretion LYZ.NS, 2.5-D 384-well ENR+CD organoid differentiation; type: cell-based, mouse; settings: primary screen; for Z.LYZ.NS: standard z score
Description: (§1) High-throughput screening.

[2] = test system: ENR+CD organoids (ISC to Paneth cell differentiation); assay: Primary screen: CCh-stimulated lysozyme secretion LYZ.S, 2.5-D 384-well ENR+CD organoid differentiation; type: cell-based, mouse; settings: primary screen
Description: as §1

[3] = test system: ENR+CD organoids (ISC to Paneth cell differentiation); assay: Secondary (validation) screen: LYZ.NS basal lysozyme secretion, 2.5-D 384-well ENR+CD organoids; type: cell-based, mouse; settings: 6-day ENR+CD, vs ENR+CD+DMSO
Experimental: (§2) Drugs were tested at a narrowed dose range around each treatment's identified optimal dose from the primary screen (4× below, 2× above and below).
as §1
(§3) Secondary lysozyme secretion assay screen. Confirmatory secondary screening with primary hits was performed using the above 384-well plate method. The screen was conducted with 4-plate replicates with a base media of ENR+CD. Media was supplemented with compound at day 0 and day 3 (n=8 well replicates per dose) at four different doses: two-fold above, two-fold below, and four-fold below the optimal final dose for each respective treatment. Additionally, each plate carried a large number of ENR+DMSO or ENR+CD+DMSO (vehicle) control wells (n=100 for ATP, and n=25 for LYZ.NS and LYZ.S) for robust normalization. ATP, non-stimulated lysozyme activity and CCh-stimulated lysozyme activity was again measured and the collected data was again processed in a custom R-script, per primary screen with slight modification. Values were log10 transformed, and a plate-wise FC was calculated for each well based on the median value of ENR+CD+DMSO (vehicle) control wells to normalize plate to plate variability.

[4] = test system: ENR+CD organoids (ISC to Paneth cell differentiation); assay: Secondary (validation) screen: LYZ.S CCh-stimulated lysozyme secretion, 2.5-D 384-well ENR+CD organoids; type: cell-based, mouse; settings: 6-day ENR+CD, vs ENR+CD+DMSO
Experimental: as §2, §1, §3

[5] = test system: ENR+CD organoids; assay: Secondary (validation) screen: ATP (CTG) assay, 2.5-D 384-well ENR+CD organoids; type: cell-based, mouse; settings: 6-day ENR+CD, vs ENR+CD+DMSO
Experimental: as §2, §1, §3

[6] = test system: ENR+CD organoids; assay: Primary screen: ATP (CellTiter-Glo 3D, CTG) cell number/viability, 2.5-D 384-well ENR+CD organoids; settings: primary screen; for Z.CTG: standard z score;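 on all read-outs here: compounds given at plating and again on day 3 over a 6-day differentiation from ENR+CV stem-cell-enriched precursors, ATP measured on day 6, plate median as control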
[7] = dose 0.08 uM, FC vs plate median
[8] = dose 0.40 uM, FC vs plate median
[9] = dose 2.00 uM, FC vs plate median
[10] = dose 10.00 uM, FC vs plate median
[11] = dose 0.08 uM, FC relative to plate median
[12] = dose 0.40 uM, FC relative to plate median
[13] = dose 2.00 uM, FC relative to plate median
[14] = dose 10.00 uM, FC relative to plate median

COc1cc(Nc2c(C#N)cnc3cc(OCCCN4CCN(C)CC4)c(OC)cc23)c(Cl)cc1Cl [Bosutinib (SKI-606), Bosutinib, reference compound]
Dose.FC.LYZ.NS ([1]; dose 0.08 uM): 0.213 log2 fold change | Z.LYZ.NS (standard z score) ([1]; dose 0.08 uM): 1.858 | Dose.FC.LYZ.NS ([1]; dose 0.40 uM): 0.130 log2 fold change | Z.LYZ.NS (standard z score) ([1]; dose 0.40 uM): 1.129 | Dose.FC.LYZ.NS ([1]; dose 2.00 uM): −0.049 log2 fold change | Z.LYZ.NS (standard z score) ([1]; dose 2.00 uM): −0.425 | Dose.FC.LYZ.NS ([1]; dose 10.00 uM): −0.115 log2 fold change | Z.LYZ.NS (standard z score) ([1]; dose 10.00 uM): −1.005 | Dose.FC.LYZ.S ([2]; dose 0.08 uM): 0.308 log2 fold change | Dose.FC.LYZ.S ([2]; dose 0.40 uM): 0.208 log2 fold change | Dose.FC.LYZ.S ([2]; dose 2.00 uM): −0.058 log2 fold change | Dose.FC.LYZ.S ([2]; dose 10.00 uM): −0.223 log2 fold change | Dose.FC.LYZ.NS ([3]; 0.02 uM): 0.133 log2 fold change | Dose.FC.LYZ.NS ([3]; 0.04 uM): −0.067 log2 fold change | Dose.FC.LYZ.NS ([3]; 0.08 uM): −0.070 log2 fold change | Dose.FC.LYZ.NS ([3]; […]): 0.068 log2 fold change | Dose.FC.LYZ.S ([4]; 0.02 uM): 0.103 log2 fold change | Dose.FC.LYZ.S ([4]; 0.04 uM): −0.086 log2 fold change | Dose.FC.LYZ.S ([4]; 0.08 uM): −0.072 log2 fold change | Dose.FC.LYZ.S ([4]; […]): 0.007 log2 fold change | Dose.FC.CTG ([5]; 0.02 uM): 0.216 log2 fold change | Dose.FC.CTG ([5]; 0.04 uM): 0.139 log2 fold change | Dose.FC.CTG ([5]; 0.08 uM): 0.082 log2 fold change | Dose.FC.CTG ([5]; […]): 0.128 log2 fold change | Dose.FC.CTG ([6]; dose 0.08 uM): 0.628 log2 fold change | Dose.FC.CTG ([6]; dose 0.40 uM): 0.302 log2 fold change | Dose.FC.CTG ([6]; dose 2.00 uM): −0.169 log2 fold change | Dose.FC.CTG ([6]; dose 10.00 uM): −0.668 log2 fold change

OG-L002
Z.LYZ.NS ([1]; dose 0.08 uM): −0.001 | Z.LYZ.NS ([1]; dose 0.40 uM): −0.097 | Z.LYZ.NS ([1]; dose 2.00 uM): 0.182 | Z.LYZ.NS ([1]; dose 10.00 uM): −0.790 | Dose.FC.LYZ.NS [1, 7]: 0.000 log2 fold change | Dose.FC.LYZ.NS [1, 8]: −0.011 log2 fold change | Dose.FC.LYZ.NS [1, 9]: 0.021 log2 fold change | Dose.FC.LYZ.NS [1, 10]: −0.091 log2 fold change | Dose.FC.LYZ.S [2, 7]: 0.023 log2 fold change | Dose.FC.LYZ.S [2, 8]: 0.026 log2 fold change | Dose.FC.LYZ.S [2, 9]: −0.001 log2 fold change | Dose.FC.LYZ.S [2, 10]: −0.084 log2 fold change | Z.CTG ([6]; dose 0.08 uM): 0.225 | Z.CTG ([6]; dose 0.40 uM): 0.329 | Z.CTG ([6]; dose 2.00 uM): 0.306 | Z.CTG ([6]; dose 10.00 uM): 0.225 | Dose.FC.CTG [6, 7]: 0.094 log2 fold change | Dose.FC.CTG [6, 8]: 0.138 log2 fold change | Dose.FC.CTG [6, 9]: 0.128 log2 fold change | Dose.FC.CTG [6, 10]: 0.094 log2 fold change

S3I-201
Dose.FC.LYZ.NS [1, 11]: 0.051 log2 fold change | Z.LYZ.NS ([1]; dose 0.08 uM): 0.445 | Dose.FC.LYZ.NS [1, 12]: 0.061 log2 fold change | Z.LYZ.NS ([1]; dose 0.40 uM): 0.527 | Dose.FC.LYZ.NS [1, 13]: 0.024 log2 fold change | Z.LYZ.NS ([1]; dose 2.00 uM): 0.212 | Dose.FC.LYZ.NS [1, 14]: −0.016 log2 fold change | Z.LYZ.NS ([1]; dose 10.00 uM): −0.143 | Dose.FC.LYZ.S [2, 11]: 0.033 log2 fold change | Dose.FC.LYZ.S [2, 12]: 0.157 log2 fold change | Dose.FC.LYZ.S [2, 13]: −0.004 log2 fold change | Dose.FC.LYZ.S [2, 14]: −0.052 log2 fold change | Dose.FC.CTG [6, 11]: 0.321 log2 fold change | Z.CTG ([6]; dose 0.08 uM): 0.766 | Dose.FC.CTG [6, 12]: 0.160 log2 fold change | Z.CTG ([6]; dose 0.40 uM): 0.382 | Dose.FC.CTG [6, 13]: 0.079 log2 fold change | Z.CTG ([6]; dose 2.00 uM): 0.188 | Dose.FC.CTG [6, 14]: −0.140 log2 fold change | Z.CTG ([6]; dose 10.00 uM): −0.334

SN-38
Dose.FC.LYZ.NS [1, 11]: −0.275 log2 fold change | Z.LYZ.NS ([1]; dose 0.08 uM): −2.391 | Dose.FC.LYZ.NS [1, 12]: −0.288 log2 fold change | Z.LYZ.NS ([1]; dose 0.40 uM): −2.505 | Dose.FC.LYZ.NS [1, 13]: −0.305 log2 fold change | Z.LYZ.NS ([1]; dose 2.00 uM): −2.655 | Dose.FC.LYZ.NS [1, 14]: −0.299 log2 fold change | Z.LYZ.NS ([1]; dose 10.00 uM): −2.606 | Dose.FC.LYZ.S [2, 11]: −0.419 log2 fold change | Dose.FC.LYZ.S [2, 12]: −0.402 log2 fold change | Dose.FC.LYZ.S [2, 13]: −0.391 log2 fold change | Dose.FC.LYZ.S [2, 14]: −0.404 log2 fold change | Dose.FC.CTG [6, 11]: −0.720 log2 fold change | Z.CTG ([6]; dose 0.08 uM): −1.720 | Dose.FC.CTG [6, 12]: −1.091 log2 fold change | Z.CTG ([6]; dose 0.40 uM): −2.606 | Dose.FC.CTG [6, 13]: −1.226 log2 fold change | Z.CTG ([6]; dose 2.00 uM): −2.929 | Dose.FC.CTG [6, 14]: −1.166 log2 fold change | Z.CTG ([6]; dose 10.00 uM): −2.785
